Experimental data: publication PMC8954350, “Non-Canonical Cannabinoid Receptors with Distinct Binding and Signaling Properties in Prostate and Other Cancer Cell Types Mediate Cell Death” (International Journal of Molecular Sciences, 2022)

Columns and labels:
NPrEC = assay: LDH cytotoxicity, NPrEC cells; format: cell-based; settings: NPrEC immortalized non-cancerous cell line
human CB1 receptors = target: T1, human CB1 receptors (Homo sapiens, UniProt P21554); assay: Competition binding, CHO-hCB1 membranes; settings: membranes from CHO cells stably expressing human CB1
T1 construct: host or cells: CHO
Description: The assay was performed as previously detailed. […] All binding reactions were conducted in triplicate, in a final volume of 1 mL, and, following mixing, were incubated for 20 min in a 37 °C water bath to achieve equilibrium. After incubation, reactions were terminated by rapid vacuum filtration and processed for radioactivity, as detailed in Section 4.5.1.
Curve-fitting and all statistical analyses were performed using GraphPad Prism® v8.0g (GraphPad Software, Inc.; San Diego, CA, USA). […] For CBR screening studies, a one-sample t-test was performed to determine differences from 100% (e.g., to quantify compounds producing displacement), followed by a one-way ANOVA and Tukey’s post hoc tests to compare displacement produced by all drugs. […] To compare specific CBR affinity (Ki) between ligands, non-linear regression analysis was employed to determine experimental IC50 values from competition receptor binding assays, which were then converted to Ki values using the Cheng–Prusoff equation [35]. […] For LDH release, ATP-dependent cell viability and JC-1 staining assays, drug effects were first analyzed by a one-sample t-test to determine differences from 0 or 100% (vehicle), followed by a one-way ANOVA and Dunnett’s post hoc test to compare all means. […]

[1] = tested on: CBRs expressed in PC-12 cells; assay: [^3H]WIN-55,212-2 competitive binding screen, PC-12 membranes; design: species or system rat; settings: 1 μM ligand, 1 nM radioligand
Description: (§1) The assay was conducted as previously detailed. […] All binding reactions were conducted in triplicate, in a final volume of 1 mL, and, following mixing, were incubated for 20 min in a 37 °C water bath to achieve equilibrium. After incubation, reactions were terminated by rapid vacuum filtration through Whatman GF/B glass fiber filters (Brandel; Gaithersburg, MD, USA), followed by three washes of 4 mls of ice-cold filtration buffer (50 mM Tris, pH 7.4, and 0.05% bovine serum albumin). Samples were punched out from filter papers into scintillation vials, to which 4 mls of ScintiverseTM-BDR cocktail scintillation fluid (Fisher Scientific; Hampton, NH, USA) was added. Filters were incubated at room temperature for 24 h in scintillation fluid, vortexed, and radioactivity (measured as DPMs) was quantified via a liquid scintillation spectrophotometer (Tri Carb 2100 TR Liquid Scintillation Analyzer, Packard Instruments, Meriden, CT, USA).

[2] = tested on: canonical human CB1Rs (CHO-hCB1); design: method as in PMID 34592231; settings: 1 μM ligand, 1 nM radioligand, CHO-hCB1 membranes; cited from earlier work
[3] = tested on: canonical human CB2Rs (CHO-hCB2); design: method as in PMID 34592231; settings: 1 μM ligand, 0.2 nM radioligand, CHO-hCB2 membranes; cited from earlier work
[4] = target: non-canonical CBRs expressed in C6-glioma; assay: Homologous receptor binding, C6-glioma; design: species or system mouse; settings: homologous competition with [^3H]WIN-55,212-2 (1 nM), read-out: affinity (KD)
Description: (§2) All binding reactions were conducted in triplicate, in a final volume of 1 mL, and, following mixing, were incubated for 20 min in a 37 °C water bath to achieve equilibrium. After incubation, reactions were terminated by rapid vacuum filtration and processed for radioactivity, as detailed in Section 4.5.1.
(§3) Curve-fitting and all statistical analyses were performed using GraphPad Prism® v8.0g (GraphPad Software, Inc.; San Diego, CA, USA). For qRT-PCR experiments, a one-way ANOVA, followed by Dunnett’s test as a post hoc test was utilized to compare fold change of PC-3 and DU-145 cancer cells to an arbitrary value of 1, set to the amount of mRNA transcribed from a human normal prostate control. For CBR screening studies, a one-sample t-test was performed to determine differences from 100% (e.g., to quantify compounds producing displacement), followed by a one-way ANOVA and Tukey’s post hoc tests to compare displacement produced by all drugs. […] For LDH release, ATP-dependent cell viability and JC-1 staining assays, drug effects were first analyzed by a one-sample t-test to determine differences from 0 or 100% (vehicle), followed by a one-way ANOVA and Dunnett’s post hoc test to compare all means. […]

[5] = tested on: canonical human CB1Rs (CHO-hCB1); design: method as in PMID 34592231; settings: 1 μM ligand, 0.2 nM radioligand, CHO-hCB1 membranes; cited from earlier work
[6] = tested on: canonical human CB2Rs (CHO-hCB2); design: method as in PMID 34592231; settings: 1 μM ligand, 1 nM radioligand, CHO-hCB2 membranes; cited from earlier work
[7] = tested on: CBRs expressed in HeLa cells; assay: [^3H]WIN-55,212-2 competitive binding screen, HeLa membranes; design: species or system human; settings: 1 μM ligand, 1 nM radioligand
Description: as §1

[8] = target: non-canonical CBRs expressed in PC-3; assay: Homologous receptor binding, PC-3; design: species or system human; settings: homologous competition with [^3H]WIN-55,212-2 (1 nM), read-out: affinity (KD)
Description: as §2, §3

[9] = target: non-canonical CBRs expressed in PC-12; assay: Homologous receptor binding, PC-12; design: species or system rat; settings: homologous competition with [^3H]WIN-55,212-2 (1 nM), read-out: affinity (KD)
Description: as §2, §3

[10] = tested on: CBRs expressed in C6-glioma cells; assay: [^3H]CP-55,940 competitive binding screen, C6-glioma membranes; design: species or system mouse; settings: 1 μM ligand, 0.2 nM radioligand
Description: as §1

[11] = target: non-canonical CBRs expressed in HeLa; assay: Homologous receptor binding, HeLa; design: species or system human; settings: homologous competition with [^3H]WIN-55,212-2 (1 nM), read-out: affinity (KD)
Description: as §2, §3

[12] = tested on: CBRs expressed in PC-12 cells; assay: [^3H]CP-55,940 competitive binding screen, PC-12 membranes; design: species or system rat; settings: 1 μM ligand, 0.2 nM radioligand
Description: as §1

T1 sequence (P21554 whole entry): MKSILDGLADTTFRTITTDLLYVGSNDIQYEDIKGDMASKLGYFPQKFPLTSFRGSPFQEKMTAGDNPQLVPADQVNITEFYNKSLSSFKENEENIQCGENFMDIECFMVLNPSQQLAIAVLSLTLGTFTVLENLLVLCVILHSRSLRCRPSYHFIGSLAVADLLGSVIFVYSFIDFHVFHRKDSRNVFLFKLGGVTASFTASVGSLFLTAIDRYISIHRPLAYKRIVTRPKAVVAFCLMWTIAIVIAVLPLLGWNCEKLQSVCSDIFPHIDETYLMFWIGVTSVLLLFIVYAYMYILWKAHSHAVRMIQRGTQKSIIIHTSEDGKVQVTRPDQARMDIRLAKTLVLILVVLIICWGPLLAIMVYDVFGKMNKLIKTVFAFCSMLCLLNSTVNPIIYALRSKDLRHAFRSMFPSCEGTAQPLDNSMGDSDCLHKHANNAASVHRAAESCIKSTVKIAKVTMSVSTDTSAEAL

COc1ccc2c(c1)c(CCN1CCOCC1)c(C)n2C(=O)c1cccc(Cl)c1Cl [GW-405833]
LDH release (NPrEC): 46.4 ± 6.4% | Ki (human CB1 receptors): 747 nM

Cc1c(C(=O)c2cccc3ccccc23)c2cccc3c2n1[C@H](CN1CCOCC1)CO3 [WIN-55,212-2]
displacement of [^3H]WIN-55,212-2 (Figure 1B) [1]: significantly displaced | displacement of [^3H]WIN-55,212-2 (Figure 1B) [2]: produced near or complete displacement | displacement of [^3H]CP-55,940 [3]: produced near or complete displacement | Kd [4]: 16.1 ± 2.5 nM | displacement of [^3H]CP-55,940 [5]: produced near or complete displacement | displacement of [^3H]WIN-55,212-2 (Figure 1B) [6]: produced near or complete displacement | displacement of [^3H]WIN-55,212-2 (Figure 1B) [7]: significantly displaced | Kd [8]: 8.4 ± 2.1 nM | Kd [9]: 12.6 ± 2.7 nM | displacement of [^3H]CP-55,940 [10]: neither the non-selective CBR ligand CP-55,940 nor WIN-55,212-2 produced significant displacement | Kd [11]: 7 ± 1.6 nM | displacement of [^3H]CP-55,940 [12]: neither the non-selective CBR ligand CP-55,940 nor WIN-55,212-2 produced significant displacement
